Conditions in all cases: 37 °C
Experiment [1] has as its target Prostaglandin E2 receptor EP2 subtype (Rattus norvegicus, UniProt Q62928). Kind of experiment: SEAP Activity Assay.
Procedure: (§1) 1. Seed cells on an EP2 or EP4 STEP plate at a density of 40,000-80,000 cells/well in 200 ul of reduced serum medium containing 0.5% FBS. Place the plate in a 37° C. incubator with 5% CO2 and incubate overnight. 2. After 16-18 hours of incubation, aspirate the culture media from each well. 3. Add 200 ul of culture medium containing different concentration of test compounds to the assigned wells. For each test compound, at least 8 concentrations starting at highest 10 M and lowest 0.01 pM were tested. In addition each concentration had triplicates. […] 4. […] Cover the plate with the lid.
Experiment [2] concerns the target T1, Prostaglandin E2 receptor EP4 subtype (Rattus norvegicus, UniProt P43114). Kind of experiment: SEAP Activity Assay.
Procedure: as §1
Experiment [3] has as its target T1, Prostaglandin E2 receptor EP4 subtype. The experiment can be described thus: cAMP Assay.
Procedure: Seed cells on an EP2 or EP4 STEP plate at a density of 40,000-80,000 cells/well in 200 uL of reduced serum medium containing 0.5% FBS. Place the plate in a 37° C. incubator with 5% CO2 and incubate overnight. […] After 16-18 hours of incubation, aspirate the culture media from each well. […] Add 200 ul of culture medium containing 500 uM IBMX (an inhibitor of cAMP phosphodiesterase) and different concentration of test compounds to the assigned wells. For each test compound, at least 8 concentrations starting at highest 10 M and lowest 0.01 pM were tested. In addition each concentration had triplicates. […] Incubate the cells in a cell culture incubator for 30 minutes. […] Centrifuge the plate at 1,000x rpm for 10 minutes. […] Aspirate the supernatant.

Each structure is given as a SMILES string.

The term EC50 denotes the midpoint of the concentration-response curve.

T1 sequence (P43114 whole entry): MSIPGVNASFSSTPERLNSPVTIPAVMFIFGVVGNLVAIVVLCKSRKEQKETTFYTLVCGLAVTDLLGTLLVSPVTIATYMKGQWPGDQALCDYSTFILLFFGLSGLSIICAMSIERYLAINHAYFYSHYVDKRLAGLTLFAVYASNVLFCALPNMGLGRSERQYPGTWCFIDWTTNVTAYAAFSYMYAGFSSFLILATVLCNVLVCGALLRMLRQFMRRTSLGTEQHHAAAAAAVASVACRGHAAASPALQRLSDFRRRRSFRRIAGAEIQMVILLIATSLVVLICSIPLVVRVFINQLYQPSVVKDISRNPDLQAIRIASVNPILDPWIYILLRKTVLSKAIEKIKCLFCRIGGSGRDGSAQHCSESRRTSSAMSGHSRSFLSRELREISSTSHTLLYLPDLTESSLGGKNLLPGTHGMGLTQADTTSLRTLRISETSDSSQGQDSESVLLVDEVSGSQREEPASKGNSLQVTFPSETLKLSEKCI
Chain of Prostaglandin E2 receptor EP2 subtype (Q62928 whole entry): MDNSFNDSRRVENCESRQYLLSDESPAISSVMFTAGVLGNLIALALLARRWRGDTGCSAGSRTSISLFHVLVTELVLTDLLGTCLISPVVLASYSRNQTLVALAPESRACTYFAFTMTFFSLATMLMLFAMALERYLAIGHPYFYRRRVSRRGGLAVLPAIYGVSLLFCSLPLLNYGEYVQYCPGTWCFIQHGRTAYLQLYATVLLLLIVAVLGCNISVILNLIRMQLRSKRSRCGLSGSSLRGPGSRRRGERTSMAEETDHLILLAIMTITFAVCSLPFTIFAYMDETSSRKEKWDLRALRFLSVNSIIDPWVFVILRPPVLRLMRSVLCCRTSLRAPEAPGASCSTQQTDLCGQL

As to `CCC#CC[C@H](C)[C@H](O)/C=C/[C@H]1CC(F)(F)C(=O)N1CCCc1ccc(C(=O)O)s1` [US9180116, 24D], the values for the EC50 in experiment [1], in experiment [2] and in experiment [3] were 763 nM, 0.11 nM and 0.73 nM, respectively.

As for `C[C@@H](CCc1ccccc1)[C@H](O)/C=C/[C@H]1CC(F)(F)C(=O)N1CCCc1ccc(C(=O)O)s1` [US9180116, 37C], the EC50 in experiment [3] came out at 0.15 nM.

Regarding `C[C@@H](CCc1ccccc1)[C@@H](O)/C=C/[C@H]1CC(F)(F)C(=O)N1CCCc1ccc(C(=O)O)s1` [US9180116, 37D], the values for the concentration giving a half-maximal response (EC50) in experiment [1] and in experiment [3] were 743 nM and 198 nM, respectively.

The values are drawn from BindingDB's records for patent US9180116 (Cayman Chemical, 2015).
